Experimental data as given in PMC6017563 (Molecules : A Journal of Synthetic Chemistry and Natural …, 2018).

Experiments:
[1] = tested on: testosterone in plasma; assay: Testosterone-suppressive effect (plasma testosterone, AUEC, PK-PD model), normal rats; type: in vivo; conditions: Wistar, baseline AUEC subtracted, mean ± SE, n = 5
Source text: Leuprolide is a GnRH agonist for the treatment of prostate cancer which is a target disease in this study. In the label of the Lucrin depot, this is indicated for palliative treatment of advanced prostatic cancer. Therefore, we used the testosterone concentration as a PD marker of prostate cancer, and plasma testosterone is one of qualified biomarkers used as outcomes in the therapeutic area of oncology. Since most of the PD responses are expressed as a concentration profile of endogenous substances, it is difficult to calculate the value as a general trapezoidal rule. Scheff et al. introduced several methods for calculating AUEC when baselines differ. In this study, drug-specific AUEC was calculated by subtracting the baseline AUEC from the AUEC calculated by a general method, and these drug-specific AUECs were calculated by dividing them into positive AUECs and negative AUECs. […] There were significant differences between positive and negative AUEC in all experimental groups. When absolute values of positive and negative AUEC were compared, negative AUEC was more than three times higher. […] However, there was no significant difference in AUEC between each group on formulation, species and route of administration. This estimation of AUEC means that it could be used as a method for evaluating the formulation.
The PK–PD model, which describes the mechanism of negative feedback of leuprolide, was selected based on leuprolide mechanism characteristics and biomarker characteristics. […] The equations of the baseline model are as follows:(11) dR/dt = kin−kout·R (12) R0, wistar = 4.353 (13) R0,Iar:COP = 4.094 where kin and kout represent the apparent zero-order rate constant for the production of response and the first-order rate constant for the loss of response, respectively. These were estimated by curve fitting with the vehicle-administered group and used as the basic parameters of the drug-effect model described below (Group 2).
For this, several PD models were attempted, and the final PD model decided on was the tolerance model including the feedback compartment.
The plasma concentration of testosterone in plasma samples of each group was quantified using testosterone enzyme-linked immunosorbent assay (ELISA) kits (R&D Systems, Minneapolis, MN, USA). […]
Determination of the testosterone concentration was performed on using the validated Parameter^TM Testosterone Assay (R&D Systems, Minneapolis, MN, USA) and its process. […] The reaction was stopped when 50 μL of stop solution (2N sulfuric acid) was added, and the optical density of each well was measured using SynergyMX (BioTek, Winooski, VT, USA). All plasma samples were measured twice. […]

[2] = in vivo; conditions: rat; for half-life: plasma
Method: The PK parameters for each experimental group were estimated by one-compartmental analysis using WinNonlin® software (version 7.0, Pharsight®, a Certara™ Company, Princeton, NJ, USA).
For the vehicle-administered groups (Groups 2 and 5), the above dispersion solution was administered instead of the drug (Table 5). Blood samples were directly drawn from the right jugular vein at predetermined time intervals before administration and at 0.25, 1, 2, 4, 8 h, 1, 2, 3, 4, 5, 6, 7, 11, and 14 days after the drug administration. Approximately 300 μL of blood was collected periodically in heparinized tubes via the catheter and was immediately centrifuged at 12,000 g for 5 min and then stored at −80 °C until analysis.
After being shaken with a vortex mixer for 3 min and centrifuged at 10,000× g for 5 min at room temperature, the upper supernatant was transferred to a clean tube and mixed with 20 µL of acetic acid and 900 µL of methylene chloride by vortex-mixing for 3 min and centrifugation at 10,000× g for 5 min at room temperature. The aqueous upper sample aliquots (10 µL) were directly injected into the UPLC–MS/MS system. Analyses were performed with the following UPLC–MS/MS system: Acquity™ UPLC system (Waters Corp., Milford, MA, USA), Mass Spectrometer (Xevo™ TQ-S, Waters Corp.), HALO peptide ES-C18 column (2.1 mm × 100 mm, 2.7 µm particle size, Advanced Material Technology, Wilmington, DE, USA). The mobile phase consisted of 1% acetic acid in water and 1% acetic acid in acetonitrile with gradient at a flow rate of 0.2 mL/min.
The mass spectrometric detection was performed using an electrospray ionization (ESI) source in positive ionization mode. The optimization of MS parameters was accomplished as follows: capillary voltage, 2.9 kV; ion source temperature, 150 °C; desolvation temperature, 350 °C; flow rate of cone gas, 150 L/h; flow rate of desolation gas, 600 L/h; and pressure of argon gas, 4.5 × 10^−3 mbar, respectively. […] Data acquisition and analysis were performed by Masslynx 4.1 software (Waters Corp., Milford, CT, USA).
The PK and PD analysis was performed by non-compartmental and compartment analysis using WinNonlin® software (version 7.0, Pharsight®, a Certara™ Company, Princeton, NJ, USA). The maximum plasma concentration (Cmax) and the time to reach Cmax (Tmax) were measured by visual observation of the individual plasma concentration–time curve. The AUC0–∞ was integrated by the linear trapezoidal rule from time zero to the final measured concentration and was extrapolated from the final measured concentration to infinity. […] The elimination rate constant k is a value used to describe the rate at which the drug is removed from the biological system. The volume of distribution (Vd), which is the theoretical volume in biological fluid, was calculated as CL divided by the k, and the bioavailability (F) was estimated as the AUC0–∞ obtained from SC administration divided by the AUC0–∞, obtained from IV administration. AUEC could be estimated by numerical integration over all segments of the effect-time curve by the trapezoidal rule without extrapolation to infinity. Because the endogenous testosterone was used as a PD marker in this study, the AUEC value subtracted from the baseline AUEC was used for data analysis.
The PK–PD modeling was conducted to describe the PK–PD relationship, and to estimate model parameters using Berkeley Madonna software (ver. 8.3.14). Berkeley Madonna software is a useful tool for modeling and analysis of various biological systems by solving the various differential equations. […] Consequently, the PD model was established in two steps. First, the baseline model was developed by using the baseline profiles of the vehicle-administered control group. Second, the drug-effect model was established based on the parameters that were estimated from the baseline model.

[3] = Group 1, leuprolide solution 0.1 mg/kg IV
[4] = Group 3, leuprolide solution 0.1 mg/kg SC

CCNC(=O)[C@@H]1CCCN1C(=O)[C@H](CCCNC(=N)N)NC(=O)[C@H](CC(C)C)NC(=O)[C@@H](CC(C)C)NC(=O)[C@H](Cc1ccc(O)cc1)NC(=O)[C@H](CO)NC(=O)[C@H](Cc1c[nH]c2ccccc12)NC(=O)[C@H](Cc1c[nH]cn1)NC(=O)[C@@H]1CCC(=O)N1 [leuprolide, Leuprolide (Pyr-His-Trp-Ser-Tyr-D-Leu-Leu-Arg-Pro-NHEt)]
Negative AUEC (drug-specific, testosterone-suppressive effect) [1, 3]: −1404.30 ± 287.31
Positive AUEC (drug-specific, testosterone flare-up effect) [1, 3]: 208.24 ± 52.30
Negative AUEC (drug-specific, testosterone-suppressive effect) [1, 4]: −775.98 ± 289.13
Positive AUEC (drug-specific, testosterone flare-up effect) [1, 4]: 220.87 ± 39.56
AUC(0-inf) ([2]; Wistar, in vivo, iv, 0.1 mg/kg): 106 ± 17.3 ng·h/mL
AUC(0-t) ([2]; Wistar, in vivo, iv, 0.1 mg/kg): 103 ± 16.9 ng·h/mL
C0 ([2]; Wistar, in vivo, iv, 0.1 mg/kg): 97.1 ± 13 ng/mL
Vd ([2]; Wistar, in vivo, iv, 0.1 mg/kg): 0.193 ± 0.0542 L
clearance ([2]; Wistar, in vivo, iv, 0.1 mg/kg): 4.14 mL/min
AUC(0-inf) ([2]; Wistar, in vivo, sc, 0.1 mg/kg): 53.3 ± 9.96 ng·h/mL
AUC(0-t) ([2]; Wistar, in vivo, sc, 0.1 mg/kg): 51.2 ± 9.56 ng·h/mL
Cmax ([2]; Wistar, in vivo, sc, 0.1 mg/kg): 41.5 ± 4.61 ng/mL
bioavailability ([2]; Wistar, in vivo, sc, 0.1 mg/kg): 50.6%
half-life ([2]; Wistar, iv, 0.1 mg/kg): 31.2 ± 6 min
half-life ([2]; Wistar, sc, 0.1 mg/kg): 39.6 ± 1.8 min
CL ([2]; in vivo): 514.46 ± 40.10 mL/h
F (bioavailability) ([2]; in vivo): 50.6%
Vd ([2]; in vivo): 0.4874 ± 0.02902 L
